For assay [1], the system named is EcR-based gene switch (IP:GFP, ID38) in transgenic Arabidopsis leaf samples. Briefly: Ligand-induced GFP expression in leaf samples of IP:GFP (ID38) transgenic plants. The format is cell-based. To be noted: leaf samples of IP:GFP plants on media containing ligand, 24 hr; not induced in wt control. From the text: Transform wild type Arabidopsis to introduce inducible GFP reporter: DNA construct ID38, which is shown diagrammatically in FIG. 1A, may be used to transform wild type (wt) Arabidopsis. […]
GFP gene will not be expressed until methoxyfenozide (activator ligand—AL) is provided to mobilize the activator proteins for binding to the GAL4-RE and switching on the IP. […] Since GFP expression can be conveniently monitored in live plants under a fluorescence microscope, the transgenic Arabidopsis can be used to study the dosage, timing, and half life time of the ligand application. […]
Briefly, the DNA constructs shown in FIG. 1 were built following standard molecular cloning procedures and transformed into disarmed Agrobacterium tumefaciens strain AGL1. […] Selected transgenic plants were analyzed by quantitative PCR (qPCR) and PCR to check transgene copy numbers and transgene intactness. […]

The test system of assay [2] is Barnase/IP:Barstar (ID06) transgenic Arabidopsis plants. Nature of the assay: Restoration of flowering in Barnase/IP:Barstar (ID06) transgenic plants by ligand spray. The format is in vivo. The following applies: for B/FS:B plants that developed flowers: T2 ID06 plants, end of experiment day 51. The source says:
A vector ID06, illustrated diagrammatically in FIG. 11, was constructed to provide constant expression of the barnase ribonuclease from Bacillus amyloliquefaciens in flower primordia to suppress flowering. The DNA construct (ID06) was transformed into wild type Arabidopsis by flower dipping method. T1 seeds were harvested and germinated in soil. Seven day old T1 seedlings were sprayed with LIBERTY® 280SL herbicide and 37 transgenic plants resistant to the herbicide survived. Transformants were analyzed by quantitative PCR (qPCR) to check transgene copy numbers. Thirteen percent of transgenic events contained only one copy of the transgene. All events were grown in growth chambers to evaluate phenotypes. The transgenic plants containing ID06 DNA construct should express the cytotoxic ribonuclease barnase in flower primordia which prevents formation of flowers. […] Instead of flowers, the Barnase/IP:Barstar plants have elongated small leaves that could have derived from sepals as shown in the inset picture of FIG. 12B.
The seven week old non-flowering plants were then sprayed with the ligand methoxyfenozide (2.5 μM) to turn on barstar expression and restore flowering. Ligand applications were performed every other day until all flowers had developed. […] T2 seeds were harvested for further evaluation of the transgenic lines on T2 plants.
Multiple T2 plants from six independent single copy transgenic ID06 events along with wt arabidopsis control plants were grown for three weeks. At three weeks plants from each line were divided in 3 treatment groups of 12 plants in each. The treatment was applied every other day for 30 days. The plants in group A were sprayed with plain water, in group B—with 50 nM solution of methoxyfenozide, and in group C—with 250 nM solution of methoxyfenozide. Before start of the treatment leaf tissue was collected from each plant for DNA extraction and genotype assessment by qPCR to identify homozygous, heterozygous and null segregant plants.
Plants were assessed as to whether they ever flowered (yes/no at the end of experiment, day 51) and the time to start flowering defined as the number of days after the first application of methoxyfenozide (days post-treatment: DPT) until the first flower bud appears. […] All the null segregants and wild-type plants flowered irrespectively of whether or not they were sprayed with methozyfenozide.

The test system of assay [3] is barstar gene under EcR-based switch. Nature of the assay: barstar expression by qRT-PCR in leaf and floral tissues of ID06 plants. The format is in vivo, Arabidopsis. To be noted: 250 nM vs water. On the technique in general: Real-time PCR tracks product formation cycle by cycle.

Each structure is given as a SMILES string.

On to `COc1cccc(C(=O)NN(C(=O)c2cc(C)cc(C)c2)C(C)(C)C)c1C` [methoxyfenozide, 3-methoxy-2-methylbenzoic acid 2-(3,5-dimethylbenzoyl)-2-(1,1-dimethylethyl)hydrazide], for which the “concentration at which GFP expression was induced” value in assay [1] is given as at most 16 nM. Besides, in assay [2] (2.5 μM ligand, FIG. 12 Panel C), the “flowering of Barnase/Barstar plants” value is given as “flowering”. The “B/FS:B plants that developed flowers” value in assay [2] (50 nM sprayed every other day for 30 days) was 56 of 57; in assay [2] (250 nM sprayed every other day for 30 days) it was 50 of 52. In assay [2] (T2 plants, 50 nM or 250 nM), the “delay in the time to start flowering between ligand-treated transgenic (ID06) and non-transgenic plants” value was 8 to 10 days. Besides, the “minimal effective concentration on flowering” value in assay [2] (same effect at 50 nM and 250 nM solution) is recorded as “lower than 50 nM”. For the same compound, the “time after ligand application until flower buds and flowers appear” value in assay [2] (seven week old non-flowering T1 plants, 2.5 μM sprayed every other day) was “seven”. In assay [3], the expression of barstar result is “dramatically increased”.

The record behind these values is patent publication US12344852B2, “Control of phenotype in plants” (GREENVENUS, LLC, priority 2016, dated 2025).
